In the assay the target is IRAK4 (Homo sapiens (Human), UniProt Q9NWZ3). Kind of assay: IRAK4 Inhibition Assay. In kind it is biochemical. The settings on record: ATP 500 μM; IRAK4 0.6 nM; 60 min at room temperature. The procedure:
The assays were performed in U-bottom 384-well plates. The final assay volume was 30 μL prepared from 15 μL additions of enzyme and substrates (fluoresceinated peptide and ATP) and test compounds in assay buffer (20 mM HEPES pH 7.2, 10 mM MgCl2, 0.015% Brij 35 and 4 mM DTT). The reaction was initiated by the combination of IRAK4 with substrates and test compounds. The reaction mixture was incubated at room temperature for 60 min. and terminated by adding 45 μL of 35 mM EDTA to each sample. The reaction mixture was analyzed on the Caliper LABCHIP® 3000 (Caliper, Hopkinton, MA) by electrophoretic separation of the fluorescent substrate and phosphorylated product. Inhibition data were calculated by comparison to no enzyme control reactions for 100% inhibition and vehicle-only reactions for 0% inhibition. The final concentrations of reagents in the assays are ATP, 500 μM; FL-IPTSPITTTYFFFKKK peptide 1.5 μM; IRAK4, 0.6 nM; and DMSO, 1.6%.
IRAK4, sequence (Q9NWZ3 whole entry, species assumed): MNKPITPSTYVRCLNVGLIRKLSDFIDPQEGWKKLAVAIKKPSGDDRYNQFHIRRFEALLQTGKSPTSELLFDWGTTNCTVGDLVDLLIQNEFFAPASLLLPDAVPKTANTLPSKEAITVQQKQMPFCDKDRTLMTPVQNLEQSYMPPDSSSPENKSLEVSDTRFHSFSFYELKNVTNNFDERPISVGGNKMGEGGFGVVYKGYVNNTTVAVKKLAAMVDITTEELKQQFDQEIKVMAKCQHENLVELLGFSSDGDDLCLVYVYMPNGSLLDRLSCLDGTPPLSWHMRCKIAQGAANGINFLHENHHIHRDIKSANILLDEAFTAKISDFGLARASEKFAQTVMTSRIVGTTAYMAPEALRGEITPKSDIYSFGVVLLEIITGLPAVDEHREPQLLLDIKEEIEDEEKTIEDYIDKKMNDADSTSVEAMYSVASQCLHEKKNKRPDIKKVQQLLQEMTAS
Take `CC(=O)N[C@H]1CC[C@H](NC(=O)c2cnc3sc(-c4cncs4)cc3c2NC(C)C)CC1` [Example 45, N-((1r,4r)-4-acetamidocyclohexyl)-4-(isopropylamino)-2-(thiazol-5-yl)thieno[2,3-b]pyridine-5-carboxamide]: the IC50 came to 3.7 nM.
Take `CC(C)Nc1c(C(=O)NCC(C)(C)CO)cnc2sc(-c3cncs3)cc12` [Example 46, N-(3-hydroxy-2,2-dimethylpropyl)-4-(isopropylamino)-2-(thiazol-5-yl)thieno[2,3-b]pyridine-5-carboxamide]: the IC50 came to 272 nM.
For `CC(C)Nc1c(C(=O)NCC2(CO)COC2)cnc2sc(-c3cncs3)cc12` [Example 47, N-((3-(hydroxymethyl)oxetan-3-yl)methyl)-4-(isopropylamino)-2-(thiazol-5-yl)thieno[2,3-b]pyridine-5-carboxamide], the IC50 was 215 nM.
Consider `C[C@H](CCO)NC(=O)c1cnc2sc(-c3cncs3)cc2c1Nc1cnn(CC(F)F)c1` [Example 48, (R)-4-((1-(2,2-difluoroethyl)-1H-pyrazol-4-yl)amino)-N-(4-hydroxybutan-2-yl)-2-(thiazol-5-yl)thieno[2,3-b]pyridine-5-carboxamide], for which the IC50 came out at 1880 nM.
Turning to `O=C(N[C@H]1CC[C@H](O)CC1)c1cnc2sc(-c3cncs3)cc2c1Nc1cnn(CC(F)F)c1` [Example 49, 4-((1-(2,2-difluoroethyl)-1H-pyrazol-4-yl)amino)-N-((1s,4s)-4-hydroxycyclohexyl)-2-(thiazol-5-yl)thieno[2,3-b]pyridine-5-carboxamide], the IC50 stood at 408 nM.
`COCCNC(=O)c1cnc2sc(-c3cncs3)cc2c1Nc1cnn(CC(F)F)c1` [Example 51, 4-((1-(2,2-difluoroethyl)-1H-pyrazol-4-yl)amino)-N-(2-methoxyethyl)-2-(thiazol-5-yl)thieno[2,3-b]pyridine-5-carboxamide]: the IC50 is 1230 nM.
Take `CC(C)(O)[C@H](F)CNC(=O)c1cnc2sc(-c3cncs3)cc2c1Nc1cnn(CC(F)F)c1` [Example 52, (R)-4-((1-(2,2-difluoroethyl)-1H-pyrazol-4-yl)amino)-N-(2-fluoro-3-hydroxy-3-methylbutyl)-2-(thiazol-5-yl)thieno[2,3-b]pyridine-5-carboxamide]: the IC50 worked out at 72.8 nM.
On to `O=C(N[C@H]1CC[C@H](O)CC1)c1cnc2sc(-c3cncs3)cc2c1NC1COC1` [Example 54, N-((1s,4s)-4-hydroxycyclohexyl)-4-(oxetan-3-ylamino)-2-(thiazol-5-yl)thieno[2,3-b]pyridine-5-carboxamide], for which the concentration for half-maximal inhibition (IC50) came out at 193 nM.
Take `O=C(NCc1ncn[nH]1)c1cnc2sc(-c3cncs3)cc2c1NC1COC1` [Example 55, N-((1H-1,2,4-triazol-5-yl)methyl)-4-(oxetan-3-ylamino)-2-(thiazol-5-yl)thieno[2,3-b]pyridine-5-carboxamide]: the IC50 is 200 nM.
As for `COc1ncc(-c2cc3c(NC(C)C)c(C(=O)NC[C@@H](F)C(C)(C)O)cnc3s2)s1` [Example 58, (R)-N-(2-fluoro-3-hydroxy-3-methylbutyl)-4-(isopropylamino)-2-(2-methoxythiazol-5-yl)thieno[2,3-b]pyridine-5-carboxamide], the figure is 53.5 nM; as for `CC(C)Nc1c(C(=O)NC2CC(O)C2)cnc2sc(-c3cncs3)cc12` (centres unmarked) [Example 61, N-(3-hydroxycyclobutyl)-4-(isopropylamino)-2-(thiazol-5-yl) thieno[2,3-b]pyridine-5-carboxamide], 97.5 nM; as for `CC(C)Nc1c(C(=O)NC[C@@H](F)C(C)(C)O)cnc2sc(-c3cscn3)cc12` [Example 62, (R)-N-(2-fluoro-3-hydroxy-3-methylbutyl)-4-(isopropylamino)-2-(thiazol-4-yl)thieno[2,3-b]pyridine-5-carboxamide], 35.1 nM.
For the compound `CC(C)Nc1c(C(=O)NC[C@@H](F)C(C)(C)O)cnc2sc(-c3ccc(C#N)nc3)cc12` [Example 64, (R)-2-(6-cyanopyridin-3-yl)-N-(2-fluoro-3-hydroxy-3-methylbutyl)-4-(isopropylamino)thieno[2,3-b]pyridine-5-carboxamide], the IC50 was determined as 8.5 nM.
For `CC(C)Nc1c(C(=O)NC[C@@H](F)C(C)(C)O)cnc2sc(-c3cncc(C#N)c3)cc12` [Example 65, (R)-2-(5-cyanopyridin-3-yl)-N-(2-fluoro-3-hydroxy-3-methylbutyl)-4-(isopropylamino)thieno[2,3-b]pyridine-5-carboxamide], the IC50 came out at 18.6 nM.
For `CC(=O)N1CCC(NC(=O)c2cnc3sc(-c4ccc(=O)[nH]c4)cc3c2NC(C)C)CC1` [Example 66, N-(1-acetylpiperidin-4-yl)-4-(isopropylamino)-2-(6-oxo-1,6-dihydropyridin-3-yl)thieno[2,3-b]pyridine-5-carboxamide], the IC50 worked out at 37.1 nM.
As for `CC(C)Nc1c(C(=O)NCCCNS(C)(=O)=O)cnc2sc(-c3ccc(=O)[nH]c3)cc12` [Example 67, 4-(isopropylamino)-N-(3-(methylsulfonamido)propyl)-2-(6-oxo-1,6-dihydropyridin-3-yl)thieno[2,3-b]pyridine-5-carboxamide], the figure is 42.8 nM.
With `CC(C)Nc1c(C(=O)NCC2CCS(=O)(=O)C2)cnc2sc(-c3cncs3)cc12` (centres unmarked) [Example 69, N-((1,1-dioxidotetrahydrothiophen-3-yl)methyl)-4-(isopropylamino)-2-(thiazol-5-yl)thieno[2,3-b]pyridine-5-carboxamide], the IC50 is 72.2 nM.
For the compound `CC(C)Nc1c(C(=O)NCCC2CCNC2)cnc2sc(-c3ccc(=O)[nH]c3)cc12` (centres unmarked) [Example 70, 4-(isopropylamino)-2-(6-oxo-1,6-dihydropyridin-3-yl)-N-(2-(pyrrolidin-3-yl)ethyl)thieno[2,3-b]pyridine-5-carboxamide], the IC50 was 22.6 nM.
Consider `CC(C)Nc1c(C(=O)NCCN2CCS(=O)(=O)CC2)cnc2sc(-c3ccc(=O)[nH]c3)cc12` [Example 73, N-(2-(1,1-dioxidothiomorpholino)ethyl)-4-(isopropylamino)-2-(6-oxo-1,6-dihydropyridin-3-yl)thieno[2,3-b]pyridine-5-carboxamide], for which the IC50 came out at 24.2 nM.
As to `CC(C)Nc1c(-n2cc(CCC(C)(C)O)nn2)cnc2sc(-c3cccnc3)cc12` [Example 74, 4-(1-(4-(isopropylamino)-2-(pyridin-3-yl)thieno[2,3-b]pyridin-5-yl)-1H-1,2,3-triazol-4-yl)-2-methylbutan-2-ol], the IC50 was found to be 171 nM.
In the case of `CC(C)Nc1c(-n2cc(CCC(C)(C)O)nn2)cnc2sc(-c3ccncc3)cc12` [Example 75, 4-(1-(4-(isopropylamino)-2-(pyridin-4-yl)thieno[2,3-b]pyridin-5-yl)-1H-1,2,3-triazol-4-yl)-2-methylbutan-2-ol], the IC50 is 44.8 nM.
Consider `CC(C)CCc1cn(-c2cnc3sc(-c4ccncc4)cc3c2NC(C)C)nn1` [Example 76, 5-(4-isopentyl-1H-1,2,3-triazol-1-yl)-N-isopropyl-2-(pyridin-4-yl)thieno[2,3-b]pyridin-4-amine], for which the IC50 amounted to 44.1 nM.
For the compound `CC(C)CCc1nc(-c2cnc3sc(-c4cncs4)cc3c2NC(C)C)n[nH]1` [Example 77, 5-(5-isopentyl-1H-1,2,4-triazol-3-yl)-N-isopropyl-2-(thiazol-5-yl)thieno[2,3-b]pyridin-4-amine], the IC50 was found to be 289 nM.

The IC50 is the point on the concentration scale where inhibition reaches its midpoint.
